Structures are written as SMILES. Some results are limits rather than exact numbers.

By IC50 is commonly meant the point on the concentration scale where inhibition reaches its midpoint. Read a high IC50 as weaker potency.

For test [1], the system named is HCT-116 colon carcinoma. Nature of the test: Cell Proliferation Inhibition Assay (14C-thymidine incorporation), HCT-116.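 Further: proliferation measured as methyl 14C-thymidine uptake into new DNA, counted in 96-well scintillating microplates, compared with DMSO-only control wells.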 The format is cell-based. The settings on record: Homo sapiens.
Test [2] deals with HeLa cervical adenocarcinoma. Nature of the test: Cell Proliferation Inhibition Assay (14C-thymidine incorporation), HeLa.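 Further: test compound in DMSO added to cells seeded in scintillating 96-well plates, DMSO-only wells as control, uptake of methyl 14C-thymidine into new DNA counted.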 Type of test: cell-based. The settings on record: Homo sapiens, HeLa cells.
Test [3] deals with T1, RET (Homo sapiens, UniProt P07949).
T1 construct: polyhistidine (N)
T1 sequence (P07949 658-1114 limits assumed): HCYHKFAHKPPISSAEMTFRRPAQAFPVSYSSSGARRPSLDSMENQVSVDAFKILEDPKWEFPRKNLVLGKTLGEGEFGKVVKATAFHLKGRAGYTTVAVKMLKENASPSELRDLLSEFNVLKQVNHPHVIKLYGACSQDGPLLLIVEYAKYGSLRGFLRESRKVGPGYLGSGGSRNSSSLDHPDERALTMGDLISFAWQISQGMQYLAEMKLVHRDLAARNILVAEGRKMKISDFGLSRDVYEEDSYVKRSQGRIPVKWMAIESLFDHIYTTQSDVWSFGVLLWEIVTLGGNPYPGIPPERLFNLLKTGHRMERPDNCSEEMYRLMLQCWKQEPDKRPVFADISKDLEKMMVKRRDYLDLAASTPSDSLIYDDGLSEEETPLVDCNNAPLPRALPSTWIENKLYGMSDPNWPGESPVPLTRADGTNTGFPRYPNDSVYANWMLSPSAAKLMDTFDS
Nature of the test: RET kinase screening assay (33P-ATP FlashPlate).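 Further: biotinylated peptide substrate captured on streptavidin FlashPlate, 33P phosphate transfer read by scintillation counting, 1% DMSO, lower incorporation means inhibition, percent relative to per-plate maximum and minimum signals.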 The format is biochemical. To be noted: human RET kinase domain; 10 μM ATP; 1 hr at 30° C.

Test [4] has as its target T2, Aurora-A (Mus musculus, UniProt P97477).
T2 construct: polyhistidine (N)
T2 sequence (P97477 1-395): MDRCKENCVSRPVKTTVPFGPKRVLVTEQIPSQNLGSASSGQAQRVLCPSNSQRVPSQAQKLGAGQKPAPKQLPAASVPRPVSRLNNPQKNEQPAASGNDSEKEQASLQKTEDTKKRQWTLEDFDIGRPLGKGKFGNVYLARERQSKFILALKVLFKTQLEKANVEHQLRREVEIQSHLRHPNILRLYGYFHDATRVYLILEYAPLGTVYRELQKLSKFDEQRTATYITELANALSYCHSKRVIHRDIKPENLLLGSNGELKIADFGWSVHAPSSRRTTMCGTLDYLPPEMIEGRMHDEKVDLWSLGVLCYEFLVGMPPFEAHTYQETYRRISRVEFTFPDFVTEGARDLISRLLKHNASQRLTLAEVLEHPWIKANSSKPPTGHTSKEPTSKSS
Nature of the test: Aurora-A kinase screening assay (33P-ATP FlashPlate).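 Further: His-tagged mouse Aurora-A phosphorylating a biotinylated peptide captured on streptavidin plates, read as 33P uptake by scintillation counting, 1% DMSO, inhibition scaled between per-plate maximum and minimum signals.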 The format is biochemical. To be noted: 10 μM ATP, 1 hr at 30° C.

Test [5] deals with A375 malignant melanoma. Nature of the test: Cell Proliferation Inhibition Assay (14C-thymidine incorporation), A375.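 Further: proliferation measured by radiolabelled thymidine uptake into new DNA, counted in scintillating 96-well plates, compound-treated wells compared with DMSO-only control wells.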 The format is cell-based. To be noted: Homo sapiens, A-375, A375 cells. For orientation: Uptake of a labelled nucleoside into DNA is a usual measure of proliferation.
In test [6] the target is T3, VEGF-R2 (Rattus norvegicus, UniProt O08775).
T3 construct: polyhistidine (N)
Nature of the test: VEGF-R2 kinase screening assay (33P-ATP FlashPlate).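 Further: Read-out is ³³P incorporation from ³³P-γ-ATP into biotinylated peptide substrate captured on streptavidin FlashPlate, counted by scintillation, 1% DMSO final, inhibition scaled between per-plate maximum and minimum signals.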 The settings on record: rat VEGF-R2 kinase domain; 10 μM ATP; 1 hr at 30° C. The format is biochemical.

Test [7] deals with T4, CDK1 (Homo sapiens, UniProt P06493).
T4 construct: purchased New England Biolabs, Beverly, Mass; 6020; host or cells: insect cells
The test can be described thus: CDK-1 kinase screening assay (33P-ATP FlashPlate). The format is biochemical. The settings on record: human CDK1 with cyclin B; 10 μM ATP; 1 hr at 30° C. Here is the method:
A kinase reaction mixture was prepared containing 50 mM Tris-HCl pH=8, 10 mM MgCl2, 0.1 mM […], 1 mM DTT, 10 μM ATP, 0.025 μM biotinylated histone-H1 peptide substrate and 0.2 μCuries per well ^33P-γ-ATP (2000-3000 Ci/mmol). 70 μL of the kinase reaction mixture was dispensed into the well of a streptavidin coated FlashPlate™ (Cat. # SMP103, NEN, Boston, Mass.).
Test compound stock in 100% DMSO (1 μL) was added to the wells resulting in a final concentration of 1% DMSO in the reaction with a 100 μL final reaction volume. Each enzyme was diluted in 50 mM Tris-HCl pH=8.0, 0.11% BSA and 30 μL was added to each well to initiate the reaction. The reaction was incubated for one hour at 30° C. At the end of the 1 hr incubation, the reaction was terminated by aspirating the mixture from the plate and washing the wells twice with PBS containing 100 mM EDTA. The biotinylated peptide substrate became immobilized on the Flashplate™ and the incorporation of ^33P-γ-ATP was measured by reading the plate on a scintillation counter. Inhibition of the enzymatic activity was measured by observing a reduced amount of ^33P-γ-ATP incorporated into the immobilized peptide.
The CDK1 enzyme was isolated from insect cells expressing both the human CDK1 catalytic subunit (Accession number NM_001786) and its positive regulatory subunit cyclin B (New England Biolabs, Beverly, Mass.; Cat. # 6020). The assay used 30 ng of the N-terminal biotinylated peptide biotin-[…]-amide (Cyclin dependent kinase 1) per well.
A maximum and minimum signal for the assay was determined on each plate. The percent inhibition of a test compound was calculated according to the formula: […]
For a series of test concentrations, the IC50 was derived by graphing percent inhibition against the log of the concentrations tested for a given compound with results shown in Table 1.
For compounds with multiple values, each value represents a separate assay result.

The target in test [8] is T5, HER2 (Homo sapiens, UniProt P04626).
T5 construct: GST (Glutathione-S-Transferase) (N); HIS6 (N); thrombin cleavage site (N); purchased Proqinase, Freiburg, Germany
Nature of the test: HER2 kinase screening assay (33P-ATP FlashPlate).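 Further: Biotin-poly(GT) 4:1 peptide captured on streptavidin FlashPlate, 33P transfer from γ-ATP read by scintillation counting, lower incorporation means inhibition, 1% DMSO final, 100 µL reaction.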 The format is biochemical. The settings on record: GST-HIS6 HER-2 aa 679 to 1255; 10 μM ATP; 1 hr at 30° C.

T4 sequence (P06493 whole entry): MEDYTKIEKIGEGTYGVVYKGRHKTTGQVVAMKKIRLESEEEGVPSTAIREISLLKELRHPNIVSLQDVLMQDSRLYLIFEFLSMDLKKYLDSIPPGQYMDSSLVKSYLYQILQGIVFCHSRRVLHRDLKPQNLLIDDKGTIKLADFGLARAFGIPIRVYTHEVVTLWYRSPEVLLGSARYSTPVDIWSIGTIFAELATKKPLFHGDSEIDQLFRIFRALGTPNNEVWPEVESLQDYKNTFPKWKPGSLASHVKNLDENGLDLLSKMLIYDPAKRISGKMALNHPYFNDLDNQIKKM
T4 sequence (P14635 whole entry partner): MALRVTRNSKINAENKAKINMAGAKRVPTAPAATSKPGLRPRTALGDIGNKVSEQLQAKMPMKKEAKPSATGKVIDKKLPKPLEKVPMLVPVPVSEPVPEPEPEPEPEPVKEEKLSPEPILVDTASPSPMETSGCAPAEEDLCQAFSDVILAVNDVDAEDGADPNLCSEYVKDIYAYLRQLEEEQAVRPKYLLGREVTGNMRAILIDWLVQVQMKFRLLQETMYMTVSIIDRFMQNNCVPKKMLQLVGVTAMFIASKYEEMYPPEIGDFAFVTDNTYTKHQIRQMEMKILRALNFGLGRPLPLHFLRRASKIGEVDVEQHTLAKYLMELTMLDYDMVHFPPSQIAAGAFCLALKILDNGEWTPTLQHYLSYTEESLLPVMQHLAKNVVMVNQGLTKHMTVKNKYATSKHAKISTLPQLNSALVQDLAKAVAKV
T5 sequence (P04626 679-1255): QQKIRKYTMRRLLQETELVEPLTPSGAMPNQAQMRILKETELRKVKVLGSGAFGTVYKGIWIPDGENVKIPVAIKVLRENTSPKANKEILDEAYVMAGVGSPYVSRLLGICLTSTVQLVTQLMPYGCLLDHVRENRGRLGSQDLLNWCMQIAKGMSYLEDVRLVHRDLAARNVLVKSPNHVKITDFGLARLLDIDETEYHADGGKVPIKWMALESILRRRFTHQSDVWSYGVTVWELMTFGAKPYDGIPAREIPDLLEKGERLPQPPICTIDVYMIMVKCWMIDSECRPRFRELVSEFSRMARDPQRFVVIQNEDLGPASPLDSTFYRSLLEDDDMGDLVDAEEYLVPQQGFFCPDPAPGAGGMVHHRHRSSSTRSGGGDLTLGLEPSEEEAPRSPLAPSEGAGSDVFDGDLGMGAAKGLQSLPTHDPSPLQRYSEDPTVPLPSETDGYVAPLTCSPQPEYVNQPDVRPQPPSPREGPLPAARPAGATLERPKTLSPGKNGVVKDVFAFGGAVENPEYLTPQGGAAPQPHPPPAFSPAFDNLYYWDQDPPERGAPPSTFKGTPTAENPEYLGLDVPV
T3 sequence (O08775 786-1343): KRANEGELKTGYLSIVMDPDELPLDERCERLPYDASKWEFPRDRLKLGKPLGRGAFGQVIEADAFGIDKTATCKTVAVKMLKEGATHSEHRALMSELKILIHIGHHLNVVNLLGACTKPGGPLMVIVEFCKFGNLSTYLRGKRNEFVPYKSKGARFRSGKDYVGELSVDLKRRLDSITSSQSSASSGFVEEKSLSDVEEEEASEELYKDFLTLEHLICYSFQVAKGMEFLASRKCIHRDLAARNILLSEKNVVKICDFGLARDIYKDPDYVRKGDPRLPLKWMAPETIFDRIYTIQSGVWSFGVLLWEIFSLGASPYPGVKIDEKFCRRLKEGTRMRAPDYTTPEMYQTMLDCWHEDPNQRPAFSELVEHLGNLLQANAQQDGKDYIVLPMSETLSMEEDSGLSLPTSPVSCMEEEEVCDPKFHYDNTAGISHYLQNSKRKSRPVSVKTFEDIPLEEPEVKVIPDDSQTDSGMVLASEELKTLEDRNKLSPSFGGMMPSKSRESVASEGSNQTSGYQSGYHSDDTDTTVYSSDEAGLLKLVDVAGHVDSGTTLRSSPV

As to `c1ccc2c(-c3cnc4[nH]nc(-c5nc6c(CN7CCCC7)cccc6[nH]5)c4c3)cncc2c1` [Cpd 7, 4-[3-(4-pyrrolidin-1-ylmethyl-1H-benzoimidazol-2-yl)-1H-pyrazolo[3,4-b]pyridin-5-yl]-isoquinoline], the IC50 was 0.0648 µM in test [1] (HCT-116, HCT-116 cells); 0.113 µM in test [2] (HeLa); over 10 µM in test [3]; 1.72 µM in test [4]; 0.0825 µM in test [5]; 1.57 µM in test [6]. This molecule gave an IC50 in test [7] of 0.00492 µM.
Turning to `c1ccc2c(-c3cnc4[nH]nc(-c5nc6c(CN7CCOCC7)cccc6[nH]5)c4c3)cncc2c1` [Cpd 9, 4-[3-(4-morpholin-4-ylmethyl-1H-benzoimidazol-2-yl)-1H-pyrazolo[3,4-b]pyridin-5-yl]-isoquinoline], the IC50 is 0.0647 µM in test [1] (HCT-116, HCT-116 cells); 0.0926 µM in test [2] (HeLa); about 10 µM in test [3]; about 10 µM in test [4]; 0.084 µM in test [5]; 0.21 µM in test [6]. This molecule had an IC50 in test [7] of 0.00845 µM.
Consider `CCN1CCN(Cc2cccc3[nH]c(-c4n[nH]c5ncc(-c6cncc7ccccc67)cc45)nc23)CC1` [Cpd 10, 4-{3-[4-(4-ethyl-piperazin-1-ylmethyl)-1H-benzoimidazol-2-yl]-1H-pyrazolo[3,4-b]pyridin-5-yl}-isoquinoline], for which the IC50 in test [1] (HCT-116, HCT-116 cells) was 0.191 µM; in test [2] (HeLa), 0.127 µM; in test [3], over 10 µM; in test [4], 6.74 µM; in test [5], 0.118 µM; in test [6], 0.163 µM. In test [7], this molecule had an IC50 of 0.0159 µM.
Take `c1ccc2c(-c3cnc4[nH]nc(-c5nc6c(Cn7ccnc7)cccc6[nH]5)c4c3)cncc2c1` [Cpd 12, 4-[3-(4-imidazol-1-ylmethyl-1H-benzoimidazol-2-yl)-1H-pyrazolo[3,4-b]pyridin-5-yl]-isoquinoline]: the IC50 is 1.89 µM in test [1] (HCT-116, HCT-116 cells); 3.2 µM in test [2] (HeLa); about 100 µM in test [3]; about 10 µM in test [4]; 4.09 µM in test [5]; about 10 µM in test [6]. The molecule also returned an IC50 in test [7] of 0.0415 µM.
For the molecule `OCc1cccc2[nH]c(-c3n[nH]c4ncc(-c5cncc6ccccc56)cc34)nc12` [Cpd 3, [2-(5-isoquinolin-4-yl-1H-pyrazolo[3,4-b]pyridin-3-yl)-1H-benzoimidazol-4-yl]-methanol], the IC50 in test [1] (HCT-116, HCT-116 cells) is 0.892 µM; in test [2] (HeLa), 1.76 µM; in test [3] it was over 100 µM; in test [4], over 10 µM; in test [6], over 100 µM; in test [8], 0.245 µM. In test [7], this molecule came in with an IC50 of 0.0413 µM.
For `COCCNCc1cncc(-c2cnc3[nH]nc(-c4nc5cc(N6CCN(C)CC6)ccc5[nH]4)c3c2)c1` [Cpd 86, (2-methoxy-ethyl)-(5-{3-[5-(4-methyl-piperazin-1-yl)-1H-benzoimidazol-2-yl]-1H-pyrazolo[3,4-b]pyridin-5-yl}-pyridin-3-ylmethyl)-amine], the IC50 in test [1] (HCT-116 cells) was 2.32 µM; in test [2], 2.29 µM; in test [4], 0.428 µM; in test [5], 2.49 µM; in test [6] it was about 0.1 µM; in test [8], 1.05 µM. The IC50 in test [7] stood at 0.00517 µM.
As to `c1ccc2c(-c3cnc4[nH]nc(-c5nc6c(CN7CCCCC7)cccc6[nH]5)c4c3)cncc2c1` [Cpd 8, 4-[3-(4-piperidin-1-ylmethyl-1H-benzoimidazol-2-yl)-1H-pyrazolo[3,4-b]pyridin-5-yl]-isoquinoline], the IC50 is 0.0285 µM in test [1] (HCT-116, HCT-116 cells); 0.0486 µM in test [2] (HeLa); over 10 µM in test [3]; 1.37 µM in test [4]; 0.0292 µM in test [5]; 0.403 µM in test [6]. The molecule also showed an IC50 in test [7] of 0.00811 µM.
`CCCNCc1cncc(-c2cnc3[nH]nc(-c4nc5cc(N6CCN(C)CC6)ccc5[nH]4)c3c2)c1` [Cpd 85, (5-{3-[5-(4-methyl-piperazin-1-yl)-1H-benzoimidazol-2-yl]-1H-pyrazolo[3,4-b]pyridin-5-yl}-pyridin-3-ylmethyl)-propyl-amine]: the IC50 is 0.774 µM in test [1] (HCT-116 cells); 0.693 µM in test [2]; 0.28 µM in test [4]; 0.412 µM in test [5]; 0.16 µM in test [6]; 1.84 µM in test [8]. Besides, the IC50 in test [7] turned out to be 0.00185 µM.
Turning to `COC(=O)c1cccc2[nH]c(-c3n[nH]c4ncc(-c5cncc6ccccc56)cc34)nc12` [Cpd 108, 2-(5-isoquinolin-4-yl-1H-pyrazolo[3,4-b]pyridin-3-yl)-1H-benzoimidazole-4-carboxylic acid methyl ester], the 50% inhibitory concentration (IC50) is 10.5 µM in test [2] (HeLa); over 100 µM in test [3]; about 100 µM in test [4]; 7.38 µM in test [5]; about 100 µM in test [6]; over 100 µM in test [8]. This molecule also had an IC50 in test [7] of about 10 µM.
Regarding `CCCCNCc1cncc(-c2cnc3[nH]nc(-c4nc5cc(OC)ccc5[nH]4)c3c2)c1` [Cpd 104, butyl-{5-[3-(5-methoxy-1H-benzoimidazol-2-yl)-1H-pyrazolo[3,4-b]pyridin-5-yl]-pyridin-3-ylmethyl}-amine], the IC50 in test [1] (HCT-116 cells) was 0.052 µM; in test [2] it was 0.085 µM; in test [4], 0.245 µM; in test [5] it was 0.0395 µM; in test [6] it was 0.0179 µM; in test [8] it was 1.88 µM. In test [7], this molecule had an IC50 of 0.0008 µM.
With `CC(C)NC(=O)c1cccc2[nH]c(-c3n[nH]c4ncc(-c5cncc6ccccc56)cc34)nc12` [Cpd 18, 2-(5-isoquinolin-4-yl-1H-pyrazolo[3,4-b]pyridin-3-yl)-1H-benzoimidazole-4-carboxylic acid isopropylamide], the IC50 in test [1] (HCT-116, HCT-116 cells) was 0.0415 µM; in test [2] (HeLa), 0.0352 µM; in test [4], over 0.1 µM; in test [5] it was 0.0647 µM; in test [6] it was 0.378 µM; in test [8], over 10 µM. The IC50 in test [7] was determined as 0.00395 µM.
Consider `COCc1cccc2[nH]c(-c3n[nH]c4ncc(-c5cnc6ccccc6c5)cc34)nc12` [Cpd 34, 3-[3-(4-methoxymethyl-1H-benzoimidazol-2-yl)-1H-pyrazolo[3,4-b]pyridin-5-yl]-quinoline], for which the IC50 in test [2] (HeLa) is 1.46 µM; in test [3] it was about 10 µM; in test [4] it was over 10 µM; in test [5], 0.0107 µM; in test [6], 0.157 µM; in test [7], 1.36 µM.
